Results: patent US12496355B2, “Method for treating a cancer and/or cancer metastasis” (NANO TARGETING & THERAPY BIOPHARMA INC., priority 2022, dated 2025)
Entries after “also recorded” stand apart in the source; their conditions may differ.

Tests used:
[1] = system: tumor angiogenesis on chicken embryo chorioallantoic membrane; assay: Chorioallantoic membrane (CAM) tumor model for angiogenesis; assay type: in vivo; details: administered on day 12, observed on days 14 and 16
Experimental: To evaluate the effect of MSNs on tumor angiogenesis, chicken embryo chorioallantoic membrane (CAM) tumor model was used. The fertilized eggs were incubated in the incubator for 10 days, then a small window was opened in the eggshell and the cancer cells were implanted on the CAM membrane near the aorta. MSN or Doxorubicin (DOX) was administered on day 12 when the tumor was formed and the angiogenesis near the tumor was observed on days 14 and 16.

[2] = system: luciferase-expressing HCT-116 cells; assay: Orthotopic colorectal cancer metastasis model, cells injected into cecum wall; details: 40 mg/kg twice per week, 8 administrations
Source text: 2×10^6 luciferase-expressing HCT-116 cells were directly injected into the wall of the cecum with surgery to establish the orthotopic colorectal cancer metastasis model, this model spontaneously produces highly metastatic tumors in adjacent intestinal tissues, peritoneum, and distance metastasis (spleen, kidney, liver, and diaphragm). […] The tumor growth and metastasis were observed by the IVIS system once a week and body weight was observed over the study period. To assess overall survival, animals were monitored up to the point of spontaneous death or approaching moribund status.

SMILES: COc1cccc2c1C(=O)c1c(O)c3c(c(O)c1C2=O)C[C@@](O)(C(=O)CO)C[C@@H]3O[C@H]1C[C@H](N)[C@H](O)[C@H](C)O1 [DOX, Doxorubicin]
- blood vessels near the tumor (angiogenesis) [1]: blood vessels exhibited disintegration and decreased density

SMILES: CCc1c2c(nc3ccc(OC(=O)N4CCC(N5CCCCC5)CC4)cc13)-c1cc3c(c(=O)n1C2)COC(=O)[C@]3(O)CC [IRI, irinotecan]
- primary tumor growth and metastases (IVIS bioluminescence) [2]: slower tumor growth rate compared to the control group; also recorded: inefficient inhibition of tumor growth and metastases
